Laboratory results as given in BindingDB's records for doi:10.7270/Q2ZC817P (The Scripps Research Institute Molecular Screening Center, 2007).

biological target: Sphingosine 1-phosphate receptor 1 (Homo sapiens, UniProt P21453); assay: S1P1 agonism potentiation – cell-based, potentiator mode, 60K MLSMR set, dose response (AID 466); settings: not given
Sequence (P21453 whole entry): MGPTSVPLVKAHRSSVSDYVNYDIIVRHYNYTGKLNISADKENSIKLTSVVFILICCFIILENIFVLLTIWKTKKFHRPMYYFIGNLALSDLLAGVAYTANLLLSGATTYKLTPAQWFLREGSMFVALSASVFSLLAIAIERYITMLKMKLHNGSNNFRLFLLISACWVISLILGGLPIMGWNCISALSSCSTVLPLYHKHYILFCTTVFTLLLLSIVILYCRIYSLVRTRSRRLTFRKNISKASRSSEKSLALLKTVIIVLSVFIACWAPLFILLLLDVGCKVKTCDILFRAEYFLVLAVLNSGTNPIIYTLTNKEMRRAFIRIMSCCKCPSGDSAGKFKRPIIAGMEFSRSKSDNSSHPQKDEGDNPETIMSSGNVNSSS

Question: `OC1(c2cccc(C(F)(F)F)c2)CCN(c2ncnc3c2[nH]c2ccc(F)cc23)CC1` [1-(8-fluoranyl-5H-pyrimido[5,4-b]indol-4-yl)-4-[3-(trifluoromethyl)phenyl]piperidin-4-ol] was tested. Which EC50 did it give?
Answer: The EC50 was 4.41 µM.

Question: With `O=C(Nc1ncc(Br)s1)C(Cc1ccccc1)n1cccc1` (centres undefined) [MLS000119027] as the compound, how does the EC50 read?
Answer: The EC50 was 2.92 µM.

Question: With `Oc1ccc(-c2nc(-c3ccc(O)c(O)c3)cs2)cc1` as the compound, how does the EC50 read?
Answer: The EC50 was 13.1 µM.

Question: For `CCOc1ccc(C2CC(c3cccc(OC)c3OC)n3nnnc3N2)cc1Cl` (centres undefined) [5-(3-chloranyl-4-ethoxy-phenyl)-7-(2,3-dimethoxyphenyl)-1,5,6,7-tetrahydro-[1,2,3,4]tetrazolo[1,5-a]pyrimidine], which EC50 is on record?
Answer: The EC50 was 68.9 µM.

Question: How did the EC50 turn out when `Fc1ccc2[nH]c3c(N4CCN(Cc5ccc6c(c5)OCO6)CC4)ncnc3c2c1` [4-[4-(1,3-benzodioxol-5-ylmethyl)-1-piperazinyl]-8-fluoro-5H-pyrimido[5,4-b]indole] was run?
Answer: Its EC50 is 2 µM.

Question: Which EC50 does the source give for `CCOC(=O)c1cccc2c1-c1ccccc1C2N=O` (centres undefined) [9-hydroximinofluorene-4-carboxylic acid ethyl ester] here?
Answer: The EC50 was 10.2 µM.

Question: How did the EC50 turn out when `CN(C)c1oc(-c2ccc(OCc3ccccc3)cc2)nc1C#N` [2-(4-benzoxyphenyl)-5-(dimethylamino)oxazole-4-carbonitrile] was run?
Answer: Its EC50 is 3.01 µM.

Question: `COc1ccc(OC)c(-c2cc(C(=O)Nc3c(C)nn(Cc4ccc(Cl)cc4)c3C)no2)c1` [MLS000087191] was tested. Which EC50 did it give?
Answer: Its EC50 is > 10 µM.

Question: How did the EC50 turn out when `COc1cccc2sc(Nc3nc(-c4ccccn4)cs3)nc12` [(4-methoxy-1,3-benzothiazol-2-yl)-[4-(2-pyridyl)thiazol-2-yl]amine] was run?
Answer: Its EC50 is 2.64 µM.

Question: With `CCN(C1CCCCC1)S(=O)(=O)c1ccc(S(=O)(=O)NCc2ccncc2)cc1` [4-N-cyclohexyl-4-N-ethyl-1-N-(pyridin-4-ylmethyl)benzene-1,4-disulfonamide] as the compound, how does the EC50 read?
Answer: Its EC50 is 7.02 µM.

Question: Which EC50 does the source give for `CC(C)OCCCNc1ncnc2c1[nH]c1ccc(F)cc12` here?
Answer: Its EC50 is 5.48 µM.

Question: How did the EC50 turn out when `CCN(CC)C(=O)CS/C(=N/C#N)Nc1ccccc1F` [2-[[N-cyano-N'-(2-fluorophenyl)amidino]thio]-N,N-diethyl-acetamide] was run?
Answer: The EC50 was > 95 µM.

Question: With `CCc1ccc(S(=O)(=O)NCCc2csc(-c3ccccc3)n2)s1` [5-ethyl-N-[2-(2-phenyl-1,3-thiazol-4-yl)ethyl]thiophene-2-sulfonamide] as the compound, how does the EC50 read?
Answer: Its EC50 is 8.24 µM.

Question: How did the EC50 turn out when `Cc1cc(NC(=O)c2oc3ccccc3c2C)ccc1-n1cnnn1` [3-Methyl-benzofuran-2-carboxylic acid (3-methyl-4-tetrazol-1-yl-phenyl)-amide] was run?
Answer: The EC50 was 5.53 µM.

Question: With `CC(C)c1cc(C(F)(F)F)n2nc(C(=O)Nc3ccc4c(c3)OCO4)cc2n1` [5-Isopropyl-7-trifluoromethyl-pyrazolo[1,5-a]pyrimidine-2-carboxylic acid benzo[1,3]dioxol-5-ylamide] as the compound, how does the EC50 read?
Answer: The EC50 was 2.84 µM.

Question: For `O=C(C1CCCN1S(=O)(=O)c1cccc2cccnc12)N1CCN(c2ccccc2)CC1` (centres undefined) [(4-phenyl-1-piperazinyl)-[1-(8-quinolinylsulfonyl)-2-pyrrolidinyl]methanone], which EC50 is on record?
Answer: Its EC50 is > 95 µM.

Question: For `CC(C)N1C(=O)CCC1C(=O)N1CCC(Cc2ccccc2)CC1` (centres undefined) [5-(4-benzylpiperidine-1-carbonyl)-1-isopropyl-2-pyrrolidone], which EC50 is on record?
Answer: The EC50 was > 95 µM.

Question: How did the EC50 turn out when `O=S(=O)(NCc1ccncc1)c1ccc(Br)s1` [5-bromanyl-N-(pyridin-4-ylmethyl)thiophene-2-sulfonamide] was run?
Answer: The EC50 was 2.21 µM.

Question: For `Cc1ccc2c(c1)[nH]c1c(N3CCN(Cc4ccccc4)CC3)ncnc12` [SMR000044826], which EC50 is on record?
Answer: The EC50 was 3.65 µM.

Question: Which EC50 does the source give for `Cc1nc2ccc3nc(NC(=O)C4COc5ccccc5O4)sc3c2s1` (centres undefined) [MLS000100909] here?
Answer: The EC50 was 4.01 µM.

Question: With `Nc1nnnn1N=C/C(Br)=C/c1ccccc1` [1-[[(Z)-2-bromanyl-3-phenyl-prop-2-enylidene]amino]-1,2,3,4-tetrazol-5-amine] as the compound, how does the EC50 read?
Answer: Its EC50 is > 10 µM.

Question: `O=C(Cc1c[nH]c2ccccc12)N1CCc2ccccc21` was tested. Which EC50 did it give?
Answer: Its EC50 is 7.74 µM.

Question: Which EC50 does the source give for `Cc1ccccc1-c1noc(-c2ccc(O)cc2)n1` [4-[3-(2-methylphenyl)-2H-1,2,4-oxadiazol-5-ylidene]-1-cyclohexa-2,5-dienone] here?
Answer: Its EC50 is 8.25 µM.

Question: With `CCOc1ccc(-c2noc(-c3cccnc3)n2)cc1OC` [3-(4-ethoxy-3-methoxy-phenyl)-5-(3-pyridyl)-1,2,4-oxadiazole] as the compound, how does the EC50 read?
Answer: The EC50 was 0.77 µM.

Question: How did the EC50 turn out when `Clc1ccc(OCc2nnc(SCc3nc4ccccc4[nH]3)n2Cc2ccco2)cc1` [2-[[[5-[(4-chlorophenoxy)methyl]-4-(2-furanylmethyl)-1,2,4-triazol-3-yl]thio]methyl]-1H-benzimidazole] was run?
Answer: The EC50 was 9.34 µM.

Question: How did the EC50 turn out when `CC(=O)Nc1ccccc1OCC(=O)c1cc(C)n(Cc2cccs2)c1C` [MLS000056239] was run?
Answer: Its EC50 is 0.223 µM.

Question: Which EC50 does the source give for `CCn1c(-c2cccc(Cl)c2)n[nH]c1=S` [SMR000104244] here?
Answer: The EC50 was > 95 µM.

Question: For `O=C(Oc1cccc(C(=O)N2CCOCC2)c1)c1ccc(Br)cc1` [(3-morpholin-4-ylcarbonylphenyl) 4-bromanylbenzoate], which EC50 is on record?
Answer: Its EC50 is > 95 µM.

Question: For `Cn1nc(C(C)(C)C)cc1C(=O)NCc1ccc(N2CCCC2=O)cc1` [5-tert-Butyl-2-methyl-2H-pyrazole-3-carboxylic acid 4-(2-oxo-pyrrolidin-1-yl)-benzylamide], which EC50 is on record?
Answer: The EC50 was 4.46 µM.

Question: `Cc1ccc(-c2nnc(SCc3ccccc3F)o2)cc1` [2-[(2-fluorobenzyl)thio]-5-(4-methylphenyl)-1,3,4-oxadiazole] was tested. Which EC50 did it give?
Answer: Its EC50 is 1.14 µM.

Question: With `Cc1ccccc1-c1nnc(SCc2ccccc2F)o1` [2-[(2-fluorobenzyl)thio]-5-(2-methylphenyl)-1,3,4-oxadiazole] as the compound, how does the EC50 read?
Answer: Its EC50 is 1.27 µM.

same assay, conditions: inactive by the depositor's call

Question: How did the EC50 turn out when `Cc1cc(N2CCN(C(c3ccccc3)c3ccccc3)CC2)n2ncnc2n1` [7-(4-benzhydrylpiperazin-1-yl)-5-methyl-[1,2,4]triazolo[1,5-a]pyrimidine] was run?
Answer: Its EC50 is 13.6 µM.

Question: For `Cc1nn(Cc2ccc(Cl)cc2)c(C)c1NC(=O)c1cc(-c2ccco2)on1` [MLS000087233], which EC50 is on record?
Answer: The EC50 was 14.1 µM.

Question: With `Cc1cccc(N2CCN(C(=O)C3CCCN(S(=O)(=O)c4cccc5cccnc45)C3)CC2)c1C` (centres undefined) [MLS000120299] as the compound, how does the EC50 read?
Answer: The EC50 was 16.1 µM.

Question: How did the EC50 turn out when `CCOC(=O)c1ccc2nc(NC(=O)c3ccco3)sc2c1` [2-(2-furoylamino)-1,3-benzothiazole-6-carboxylic acid ethyl ester] was run?
Answer: The EC50 was 18.7 µM.

Question: `COc1ccccc1-c1nc(-c2ccc(Br)cc2)no1` [3-(4-bromophenyl)-5-(2-methoxyphenyl)-1,2,4-oxadiazole] was tested. Which EC50 did it give?
Answer: Its EC50 is 10.1 µM.

Question: With `O=C(Nc1ccc(Oc2ccccc2)cc1)c1cnc2n(c1=O)CCS2` [5-keto-N-(4-phenoxyphenyl)-2,3-dihydrothiazolo[3,2-a]pyrimidine-6-carboxamide] as the compound, how does the EC50 read?
Answer: Its EC50 is 19.9 µM.

Question: For `CSc1ccc(S(=O)(=O)Nc2ccc3c(c2)OCCO3)cc1` [MLS000115922], which EC50 is on record?
Answer: Its EC50 is 18 µM.

Question: How did the EC50 turn out when `C=CCOC(=O)c1[nH]c2c(c1C)C(=O)CC(c1cc(OC)c(OC)c(OC)c1)C2` (centres undefined) [SMR000093465] was run?
Answer: Its EC50 is 11.1 µM.

Question: How did the EC50 turn out when `O=C(CSc1nnc(-c2ccc(Cl)cc2)n1Cc1ccco1)c1cccs1` [2-[[5-(4-chlorophenyl)-4-(2-furanylmethyl)-1,2,4-triazol-3-yl]thio]-1-thiophen-2-ylethanone] was run?
Answer: Its EC50 is 13.8 µM.

Question: How did the EC50 turn out when `CN(Cc1cccs1)c1ncnc2sccc12` [MLS000056228] was run?
Answer: Its EC50 is 14.2 µM.

Question: `CCOC(=O)Cc1csc(NC(=O)c2ccc(Br)s2)n1` [2-[2-[(5-bromothiophene-2-carbonyl)amino]thiazol-4-yl]acetic acid ethyl ester] was tested. Which EC50 did it give?
Answer: Its EC50 is 16.5 µM.

Question: How did the EC50 turn out when `O=C(OC1CCCCC1)c1ccc(NC(=O)c2ccco2)cc1` [4-(2-furoylamino)benzoic acid cyclohexyl ester] was run?
Answer: Its EC50 is 12.2 µM.

Question: With `Oc1nnc(Sc2ncnc3sccc23)n1CCc1ccccc1` [4-(2-phenylethyl)-3-(4-thieno[2,3-d]pyrimidinylthio)-1H-1,2,4-triazol-5-one] as the compound, how does the EC50 read?
Answer: Its EC50 is 15 µM.
